Reference: US4698340A, “Pyrimidine derivatives, processes for preparation thereof and composition containing the same” (Fujisawa Pharmaceutical Co., Ltd., priority 1984, dated 1987)

What was measured:
[1] = system: Arachidonic Acid-Induced Cerebral Edema in Rat; assay: Effect on Arachidonic Acid-Induced Cerebral Edema in Rat; format: in vivo, rat (male Wistar); conditions: for Water content, Contralatelal hemisphere / Water content, Infarcted hemisphere: N = 6; for Water content, Infarcted hemisphere: **P < 0.01
Description: Effect on Arachidonic Acid-Induced Cerebral Edema in Rat
Male wistar rats were anesthetized with ethyl ether. The right lingual and occipital arteries were ligated. Retrograde cannulation was performed at the bifurcation of the external and internal carotid arteries via the upper part of the right external artery. Arachidonic acid dissolved in 10% ethyl alcohol and 0.4% Na2 CO3 was injected into the internal carotid artery in a dose of 2 mg/0.2 ml/kg at a speed of 0.08 ml/min. Two hours after the injection of arachidonic acid, the animals were decapitated and water content in the infarcted and contralatelal hemisphere was measured. The test drug was administered intraperitoneally 30 min before the injection of arachidonic acid.
(§1) Test compounds were dissolved in saline.

Mice Subjected to Anoxia = assay: Effect on Survival Time of Mice Subjected to Anoxia (100% N2); format: in vivo, mouse (male ICR); conditions: 30 min before anoxia, n = 10, **P < 0.01 vs control
Description: Effect on Survival Time of Mice Subjected to Anoxia (100% N2)
A pair of male ICR mice with the same age was maintained in a close glass chamber in which circulated a current of nitrogen gas, and measured survival time. One mouse was pretreated intraperitoneally with the test compound, and another with the vehicle 30 min before the experiment.
as §1

Rat Brain Mitochondria = assay: Effect on Lipid Peroxide Production in Rat Brain Mitochondria (malondialdehyde, thiobarbituric acid method); format: biochemical, rat (male Wistar); conditions: 1 hr at 37° C., 100 μM ascorbic acid, 20 μM FeSO4
Description: Effect on Lipid Peroxide Production in Rat Brain Mitochondria
Brain mitochondria from male Wistar rat was incubated with 100 μM ascorbic acid, 20 μM FeSO4 and test drug for 1 hr at 37° C. Malondialdehyde formed in the incubation mixture was measured by the thiobarbituric acid method according to Shimada et al (Biochem. Biophys. Acta, 489; 163-172. 1977)
Test compounds were dissolved in water

[2] = 32 mg/kg i.p. 30 min before arachidonic acid, vehicle (1) 78.7 ± 0.4, (2), (3) 79.4 ± 0.2
[3] = 32 mg/kg i.p. 30 min before arachidonic acid, vehicle (1) 81.9 ± 0.4, (2), (3) 81.5 ± 0.4

Row | SMILES | Water content, Contralatelal hemisphere [1, 2] [%] | Water content, Infarcted hemisphere [1, 3] [%] | Inhibition % (malondialdehyde formation) (Rat Brain Mitochondria; at 10^-5 g/ml) [%] | further results
1 | CCCCC/C=C\C/C=C\C/C=C\C/C=C\CCCC(=O)O [Arachidonic acid, reference compound] | – | – | – | water content of the ipsilatelal hemisphere after injection into internal carotid artery (in words) ([1]; 2 mg/0.2 ml/kg, two hours after the injection): caused increase of water content
2 | Cc1nc(-c2ccccc2)nc(-c2cccc([N+](=O)[O-])c2)c1C(=O)NCCN(C)C.O=C(O)/C=C/C(=O)O [Example 32, N-(2-dimethylaminoethyl)-6-methyl-4-(3-nitrophenyl)-2-phenyl-5-pyrimidinecarboxamide fumarate] | 79.3 ± 0.2 | 79.9 ± 0.1 | – | Survival time (Mice Subjected to Anoxia; 10 mg/kg intraperitoneally, control 30.5 ± 0.5): 37.0 ± 1.5 s; Survival time (Mice Subjected to Anoxia; 100 mg/kg intraperitoneally, control 39.0 ± 1.2): 50.0 s; Water content, Contralatelal hemisphere ([1]; 10 mg/kg i.p. 30 min before arachidonic acid, vehicle 78.7 ± 0.4): 79.0 ± 0.3%; Water content, Infarcted hemisphere ([1]; 10 mg/kg i.p. 30 min before arachidonic acid, vehicle 81.9 ± 0.4): 80.2 ± 0.1%
3 | COC(=O)c1c(C)nc(-c2ccccc2)nc1-c1cc([N+](=O)[O-])ccc1SC [Example 26, methyl 6-methyl-4-(2-methylthio-5-nitrophenyl)-2-phenyl-5-pyrimidinecarboxylate] | – | – | – | Inhibition % (malondialdehyde formation) (Rat Brain Mitochondria; at 10^-4 g/ml): 90.9%
4 | Cc1nc(-c2ccccc2)nc(-c2cccc([N+](=O)[O-])c2)c1C(=O)NCCN1CCSCC1 [Example 36, 6-methyl-4-(3-nitrophenyl)-2-phenyl-N-[2-(4-thiomorpholino)ethyl]-5-pyrimidinecarboxamide] | 78.9 ± 0.1 | 79.5 ± 0.2 | 70.2 | –
5 | Cc1nc(-c2ccccc2)nc(-c2cccc([N+](=O)[O-])c2)c1C(=O)N1CCN(C)CC1 [Example 21, 6-methyl-5-(4-methylpiperazin-1-ylcarbonyl)-4-(3-nitrophenyl)-2-phenyl-pyrimidine] | 78.6 ± 0.1 | 79.7 ± 0.3 | 72.8 | –
